According to BindingDB's records for PubMed 9223589 (University of Tours, 1997):
pKi: −log10 of the molar value. Where “and” joins values, the source holds several entries; their conditions need not be identical. Equal entries are not always repeated.

What was measured:
[1] = target: Norepinephrine transporter (Rattus norvegicus, UniProt Q9JIA2)
[2] = target: Sodium-dependent dopamine transporter (Rattus norvegicus, UniProt P23977)
[3] = target: Sodium-dependent serotonin transporter (Rattus norvegicus, UniProt P31652)
Chain of Sodium-dependent serotonin transporter (P31652 whole entry): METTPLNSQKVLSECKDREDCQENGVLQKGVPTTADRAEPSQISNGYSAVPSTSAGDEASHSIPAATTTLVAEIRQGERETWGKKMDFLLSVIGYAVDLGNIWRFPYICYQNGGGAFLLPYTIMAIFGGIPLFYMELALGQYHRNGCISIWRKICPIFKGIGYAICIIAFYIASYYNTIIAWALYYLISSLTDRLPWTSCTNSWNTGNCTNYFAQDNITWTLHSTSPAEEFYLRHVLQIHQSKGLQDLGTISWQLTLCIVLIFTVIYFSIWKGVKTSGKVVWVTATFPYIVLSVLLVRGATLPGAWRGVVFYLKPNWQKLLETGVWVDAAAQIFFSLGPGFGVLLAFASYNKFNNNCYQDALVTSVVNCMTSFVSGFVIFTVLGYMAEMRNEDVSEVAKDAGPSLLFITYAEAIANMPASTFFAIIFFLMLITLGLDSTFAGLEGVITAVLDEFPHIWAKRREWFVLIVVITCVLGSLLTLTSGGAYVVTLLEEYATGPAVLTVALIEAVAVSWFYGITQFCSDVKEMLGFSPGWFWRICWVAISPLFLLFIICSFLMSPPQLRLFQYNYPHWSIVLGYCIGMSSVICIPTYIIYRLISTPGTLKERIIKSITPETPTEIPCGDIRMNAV

Chain of Sodium-dependent dopamine transporter (P23977 whole entry): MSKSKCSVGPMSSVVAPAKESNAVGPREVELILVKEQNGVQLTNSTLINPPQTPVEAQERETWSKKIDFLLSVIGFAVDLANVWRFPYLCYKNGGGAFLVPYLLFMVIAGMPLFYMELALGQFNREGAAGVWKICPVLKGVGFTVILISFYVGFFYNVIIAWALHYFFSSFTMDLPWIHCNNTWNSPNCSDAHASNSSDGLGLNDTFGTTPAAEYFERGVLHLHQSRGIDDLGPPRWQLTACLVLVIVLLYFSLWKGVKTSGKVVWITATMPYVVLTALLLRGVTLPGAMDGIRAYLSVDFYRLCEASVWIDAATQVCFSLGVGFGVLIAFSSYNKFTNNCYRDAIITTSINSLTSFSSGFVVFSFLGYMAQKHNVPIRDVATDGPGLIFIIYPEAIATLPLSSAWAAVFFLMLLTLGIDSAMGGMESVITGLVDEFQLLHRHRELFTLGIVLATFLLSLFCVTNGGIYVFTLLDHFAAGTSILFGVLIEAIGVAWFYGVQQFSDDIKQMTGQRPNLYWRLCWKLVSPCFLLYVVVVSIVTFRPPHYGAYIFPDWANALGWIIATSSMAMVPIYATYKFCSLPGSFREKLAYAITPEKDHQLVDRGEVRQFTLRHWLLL

Row | Structure (SMILES) | pKi [1] | pKi [2] | pKi [3]
1 | COC(=O)[C@H]1C(c2ccc(Cl)c(Cl)c2)CC2CCC1N2C/C=C/I (stereo partly drawn) [(2S,8R)-3-(3,4-Dichloro-phenyl)-8-((E)-3-iodo-allyl)-8-aza-bicyclo[3.2.1]octane-2-carboxylic acid methyl ester] | 6.30 | – | –
2 | O[C@]1(c2ccc(Cl)cc2)c2ccccc2C2=NCCN21 [Mazanor] | – | 7.30 and 7.92 | –
3 | COC(=O)[C@H]1[C@@H](c2ccc(I)cc2)C[C@@H]2CC[C@H]1N2C [RTI 55, (exo,exo)-isomer, Iodine (125) labeled] | 7.10 | 7.56 | 8.51
